Structures can show the parent of a compound that is named as a salt.
Tested on: spontaneously hypotensive rats (SHR)
Assay: Hypotensive activity: systolic blood pressure by tail plethysmographic technique after oral dosing
Assay type: in vivo
Details: 30 mg/kg orally, SHR fasted overnight
Procedure: A test compound dissolved or suspended in water was administered orally at a dose of 30 mg/kg to spontaneously […] (SHR) fasted overnight, and the systolic blood pressure of the rats was measured at intervals by the tail plethysmographic technique (The Journal of Laboratory and Clinical Medicine, Vol. 78(1971), page 957). The hypotensive activity of the test compound was estimated in terms of "Decrease in Blood pressure (Δ mm Hg)" which was calculated by the following formula: Decrease in Blood pressure (Δ mm Hg) = [formula]

## COc1ccc([C@@H]2Sc3ccc4ccccc4c3N(CCN(C)C)C(=O)[C@@H]2OC(C)=O)cc1 (racemic) [Test compound, (±)-cis-2-(4-methoxyphenyl)-3-acetoxy-5-[2-dimethylamino)ethyl]-2,3-dihydro-naphtho[2,1-b][1,5]thiazepin-4(5H)-one fumarate]
Time after dosing 1 hr
  Decrease in Blood pressure: 58.3±8.8 Δmm Hg
Time after dosing 2 hrs
  Decrease in Blood pressure: 51.3±7.7 Δmm Hg
Time after dosing 5 hrs
  Decrease in Blood pressure: 34.0±6.2 Δmm Hg

Source: patent EP0302379A1, “Naphthothiazepine derivatives and a process for preparing the same” (TANABE SEIYAKU CO., LTD., priority 1987, dated 1989)
